Patent publication US8696867B2, “Disulfo-type fluorescent whitening agents” (Blankophor GmbH & Co. KG, priority 2009, dated 2014)

Assays:
[1] = Solubility of fluorescent whitening agent in distilled water (saturated solution); format: physicochemical; conditions: ambient temperature (about 22° C.), grams FWA dissolved in 100 g saturated FWA solution
Description: The solubility of the fluorescent whitening agents was determined as follows: a dry powder of fluorescent whitening agent was added to 50 ml of distilled water until the saturation point was reached. The thus obtained saturated solution was filtered, dried and the dried residue was weighted.
The indicated percentages are based on the amount of grams of fluorescent whitening agent dissolved in 100 g of the corresponding saturated FWA solution.

[2] = Storage stability of approximately 20% aqueous solution; format: physicochemical; conditions: approximately 20% solution, ambient temperature and 4° C., without stirring
Description: The stability behavior was studied by storing an approximately 20% solution of FWA 1 and FWA 2, respectively, at ambient temperature and at 4° C., each without stirring. The aqueous brightener preparations have a shelf-life of more than 30 days both at ambient and low temperature.

SMILES	solubility [1]	crystalline precipitates on storage [2]
O=C([O-])c1ccc(Nc2nc(Nc3ccc(/C=C/c4ccc(Nc5nc(Nc6ccc(C(=O)[O-])cc6)nc(N(CCO)CCO)n5)cc4S(=O)(=O)[O-])c(S(=O)(=O)[O-])c3)nc(N(CCO)CCO)n2)cc1.[Na+].[Na+].[Na+].[Na+] [FWA 1]	27.8%	no crystalline precipitates
CC(O)CN(CC(C)O)c1nc(Nc2ccc(C(=O)[O-])cc2)nc(Nc2ccc(/C=C/c3ccc(Nc4nc(Nc5ccc(C(=O)[O-])cc5)nc(N(CC(C)O)CC(C)O)n4)cc3S(=O)(=O)[O-])c(S(=O)(=O)[O-])c2)n1.[Na+].[Na+].[Na+].[Na+] (stereo not shown) [FWA 2]	24.2%	no crystalline precipitates
